From patent publication US10227323B2, “Glucosylceramide synthase inhibitors for the treatment of diseases” (BIOMARIN PHARMACEUTICAL INC., priority 2013, dated 2019)

Biological target: T1, GCS (Canis lupus familiaris, UniProt A0A8I3MXG6)
T1 sequence (A0A8I3MXG6 1-394): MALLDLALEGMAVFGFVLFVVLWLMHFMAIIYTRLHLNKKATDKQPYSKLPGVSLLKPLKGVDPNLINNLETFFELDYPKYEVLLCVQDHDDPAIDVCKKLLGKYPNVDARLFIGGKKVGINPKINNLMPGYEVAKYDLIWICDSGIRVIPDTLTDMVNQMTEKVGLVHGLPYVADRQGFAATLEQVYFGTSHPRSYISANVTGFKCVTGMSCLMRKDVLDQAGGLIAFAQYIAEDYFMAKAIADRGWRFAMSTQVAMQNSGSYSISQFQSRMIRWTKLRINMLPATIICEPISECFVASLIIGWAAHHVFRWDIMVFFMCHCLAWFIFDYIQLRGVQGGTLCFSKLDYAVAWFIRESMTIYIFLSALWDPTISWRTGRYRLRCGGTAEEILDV
Experiment: Assay 1: GCS Enzymatic Assay (MDCK cell lysate, C6-NBD-Ceramide, LC/MS)
Assay type: biochemical, canine
Conditions: Table 1; MDCK cell lysate; read-out: IC50 (nM) generated from Assay 1
Description: This assay was modified based on the study by Larsen et al. (J. Lipid Res. 2011, 53, 282). Madin-Darby canine kidney (MDCK) cell lysate was prepared using M-PER Mammalian Protein Extraction Reagent (Thermal Scientific) in the presence of a protease inhibitor cocktail (Roche). Protein concentration was determined using BCA assay kit (Pierce). Sixty micrograms of MDCK cell lysate was incubated with various concentrations of a compound described herein from 0.001 μM-10 μM, respectively, in 100 mM Tris buffer (pH 7.5) containing 10 mM MgCl2, 1 mM dithiothreitol, 1 mM EGTA, 2 mM NAD, 100 μM UDP-glucose, 10 μM C6-NBD-Ceramide (Matreya LLC, Pleasant Gap, Pa.), 35 μM dioleoylphosphatidylcholine and 5 μM sulfatide (Sigma) in a final reaction volume of 100 μL at 37° C. for 1 hour. 0.1% DMSO was used as mock treatment or control. The reaction was terminated by adding 100 μL acetonitrile solution and subjected to LC/MS analysis.
The quantitative analysis of NBD-Ceramide and glucosylceramide was performed on a Shimadzu ultra-fast liquid chromatography (Shimadzu, Japan) coupled with API 4000 triple quadrupole mass spectrometer (Applied Biosystems, Concord, Ontario, Canada). Sample separation was conducted on a Waters Xbridge™ BEH130 C18, 100 mm×4.6 mm i.d, 3.5 μm (Milford, Mass., USA). The mobile phase consisted of water and acetonitrile supplemented with 0.1% formic acid (v/v). The flow rate was 1.0 mL/min. The initial mobile phase was 20% acetonitrile and was ramped in a linear fashion to 50% acetonitrile in 0.4 min. From 0.4 to 1.5 min, the gradient was ramped to 98% acetonitrile, and then was held at […] until 8.0 min. Acetonitrile was reset to 20% in 1.5 min, and maintained until 10.0 min. The total run time was 10.0 min. The MS/MS detection was performed in ESI positive mode. The mass transition of NBD-Ceramide was m/z 576.36→558.40 under the collision energy of 15 V, and the mass transition of glucosylceramide was m/z 738.35→558.40 under 21V collision energy. The cell lysate was diluted with equal volume of acetonitrile. Aliquots of 50 μL diluted samples were added to 1.5 mL tubes, and 100 μL of acetonitrile containing internal standard (100 ng/mL tolbutamide) were added for protein precipitation. The mixture were vortexed and then centrifuged at 13000 rpm for 10 min. 70 μL of supernatant were mixed with 140 μL of H2O and the final solution were injected for LC/MS/MS analysis and IC50's and/or percent inhibitions calculated.

Row | SMILES | IC50 [nM]
1 | O=C(N[C@H](CN1CCC1)[C@H](O)c1ccc2c(c1)OCCO2)C(F)(F)c1cc2cc(Cl)ccc2o1 [Compound 32D, N-((1R,2R)-3-(azetidin-1-yl)-1-(2,3-dihydrobenzo[b][1,4]dioxin-6-yl)-1-hydroxypropan-2-yl)-2-(5-chlorobenzofuran-2-yl)-2,2-difluoroacetamide] | < 50
2 | C[C@@H]1CCCN1C[C@@H](NC(=O)C(F)(F)c1cc2cc(Cl)ccc2o1)[C@H](O)c1ccc2c(c1)OCCO2 [Compound 39, 2-(5-chlorobenzofuran-2-yl)-N-((1R,2R)-1-(2,3-dihydrobenzo[b][1,4]dioxin-6-yl)-1-hydroxy-3-((1R)-2-methylpyrrolidin-1-yl)propan-2-yl)-2,2-difluoroacetamide] | < 50
3 | C[C@H]1CCCN1C[C@@H](NC(=O)C(F)(F)c1cc2cc(Cl)ccc2o1)[C@H](O)c1ccc2c(c1)OCCO2 [Compound 40, 2-(5-chlorobenzofuran-2-yl)-N-((1R,2R)-1-(2,3-dihydrobenzo[b][1,4]dioxin-6-yl)-1-hydroxy-3-((S)-2-methylpyrrolidin-1-yl)propan-2-yl)-2,2-difluoroacetamide] | < 50
4 | O=C(N[C@H](CN1CCCC1)[C@H](O)c1ccc(OC2CC2)c(Cl)c1)C(F)(F)c1cc2cc(Cl)ccc2o1 [Compound 44, N-((1R,2R)-1-(3-chloro-4-cyclopropoxyphenyl)-1-hydroxy-3-(pyrrolidin-1-yl)propan-2-yl)-2-(5-chlorobenzofuran-2-yl)-2,2-difluoroacetamide] | < 50
5 | O=C(N[C@H](CN1CC[C@@H](F)C1)[C@H](O)c1ccc2c(c1)OCCO2)C(F)(F)c1cc2cc(Cl)ccc2o1 [Compound 46, 2-(5-chlorobenzofuran-2-yl)-N-((1R,2R)-1-(2,3-dihydrobenzo[b][1,4]dioxin-6-yl)-3-((1R)-3-fluoropyrrolidin-1-yl)-1-hydroxypropan-2-yl)-2,2-difluoroacetamide] | 50 to 5000
6 | Cn1ncc2cc([C@@H](O)[C@@H](CN3CCCC3)NC(=O)C(F)(F)c3cc4cc(Cl)ccc4o3)ccc21 [Compound 49, 2-(5-chlorobenzofuran-2-yl)-2,2-difluoro-N-((1R,2R)-1-hydroxy-1-(1-methyl-1H-indazol-5-yl)-3-(pyrrolidin-1-yl)propan-2-yl)acetamide] | 50 to 5000

Same assay, conditions: Table 1; values marked *; MDCK cell lysate

Row | SMILES | % inhibition generated from Assay 1
7 | O=C(N[C@H](CN1CCC1)[C@@H](O)c1ccc2c(c1)OCCO2)C(F)(F)c1cc2cc(Cl)ccc2o1 [Compound 32C, N-((1S,2R)-3-(azetidin-1-yl)-1-(2,3-dihydrobenzo[b][1,4]dioxin-6-yl)-1-hydroxypropan-2-yl)-2-(5-chlorobenzofuran-2-yl)-2,2-difluoroacetamide] | B* (the compound had a % inhibition of greater than or equal to about 3% but less than about 50%)
8 | O=C(N[C@H](CN1CCCC1)[C@H](O)c1cc2c(cc1F)OCCO2)C(F)(F)c1cc2cc(Cl)ccc2o1 [Compound 33, 2-(5-chlorobenzofuran-2-yl)-2,2-difluoro-N-((1R,2R)-1-(7-fluoro-2,3-dihydrobenzo[b][1,4]dioxin-6-yl)-1-hydroxy-3-(pyrrolidin-1-yl)propan-2-yl)acetamide] | B* (the compound had a % inhibition of greater than or equal to about 3% but less than about 50%)
9 | O=C(N[C@H](CN1CCCC1)[C@@H](O)c1cc2c(cc1F)OCCO2)C(F)(F)c1cc2cc(Cl)ccc2o1 [Compound 33A, 2-(5-chlorobenzofuran-2-yl)-2,2-difluoro-N-((1S,2R)-1-(7-fluoro-2,3-dihydrobenzo[b][1,4]dioxin-6-yl)-1-hydroxy-3-(pyrrolidin-1-yl)propan-2-yl)acetamide] | B* (the compound had a % inhibition of greater than or equal to about 3% but less than about 50%)
10 | O=C(N[C@H](CN1CCCC1)[C@H](O)c1ccc2ncccc2c1)C(F)(F)c1cc2cc(Cl)ccc2o1 [Compound 34, 2-(5-chlorobenzofuran-2-yl)-2,2-difluoro-N-((1R,2R)-1-hydroxy-3-(pyrrolidin-1-yl)-1-(quinolin-6-yl)propan-2-yl)acetamide] | A* (the compound had a % inhibition of a percent inhibition of greater than or equal to about 50%)
11 | O=C(N[C@H](CN1CCCC1)[C@@H](O)c1ccc2ncccc2c1)C(F)(F)c1cc2cc(Cl)ccc2o1 [Compound 34G, 2-(5-chlorobenzofuran-2-yl)-2,2-difluoro-N-((1S,2R)-1-hydroxy-3-(pyrrolidin-1-yl)-1-(quinolin-6-yl)propan-2-yl)acetamide] | B* (the compound had a % inhibition of greater than or equal to about 3% but less than about 50%)
12 | CC1(C)CCN(C[C@@H](NC(=O)C(F)(F)c2cc3cc(Cl)ccc3o2)[C@@H](O)c2ccc3c(c2)OCCO3)C1 [Compound 36C, 2-(5-chlorobenzofuran-2-yl)-N-((1S,2R)-1-(2,3-dihydrobenzo[b][1,4]dioxin-6-yl)-3-(3,3-dimethylpyrrolidin-1-yl)-1-hydroxypropan-2-yl)-2,2-difluoroacetamide] | B* (the compound had a % inhibition of greater than or equal to about 3% but less than about 50%)
13 | O=C(N[C@H](CN1CCCC1)[C@H](O)c1ccc(OC(F)(F)F)cc1)C(F)(F)c1cc2cc(Cl)ccc2o1 [Compound 37, 2-(5-chlorobenzofuran-2-yl)-2,2-difluoro-N-((1R,2R)-1-hydroxy-3-(pyrrolidin-1-yl)-1-(4-(trifluoromethoxy)phenyl)propan-2-yl)acetamide] | B* (the compound had a % inhibition of greater than or equal to about 3% but less than about 50%)
14 | O=C(N[C@H](CN1CCCC1)[C@@H](O)c1ccc(OC(F)(F)F)cc1)C(F)(F)c1cc2cc(Cl)ccc2o1 [Compound 37G, 2-(5-chlorobenzofuran-2-yl)-2,2-difluoro-N-((1S,2R)-1-hydroxy-3-(pyrrolidin-1-yl)-1-(4-(trifluoromethoxy)phenyl)propan-2-yl)acetamide] | B* (the compound had a % inhibition of greater than or equal to about 3% but less than about 50%)
15 | O=C(N[C@H](CN1CC[C@H](F)C1)[C@H](O)c1ccc2c(c1)OCCO2)C(F)(F)c1cc2cc(Cl)ccc2o1 [Compound 38, 2-(5-chlorobenzofuran-2-yl)-N-((1R,2R)-1-(2,3-dihydrobenzo[b][1,4]dioxin-6-yl)-3-((S)-3-fluoropyrrolidin-1-yl)-1-hydroxypropan-2-yl)-2,2-difluoroacetamide] | B* (the compound had a % inhibition of greater than or equal to about 3% but less than about 50%)
16 | O=C(N[C@H](CN1CCC(F)(F)C1)[C@H](O)c1ccc2c(c1)OCCO2)C(F)(F)c1cc2cc(Cl)ccc2o1 [Compound 41, 2-(5-chlorobenzofuran-2-yl)-N-((1R,2R)-3-(3,3-difluoropyrrolidin-1-yl)-1-(2,3-dihydrobenzo[b][1,4]dioxin-6-yl)-1-hydroxypropan-2-yl)-2,2-difluoroacetamide] | B* (the compound had a % inhibition of greater than or equal to about 3% but less than about 50%)
17 | O=C(N[C@H](CN1CCCC1)[C@@H](O)c1ccc(OC2CC2)c(Cl)c1)C(F)(F)c1cc2cc(Cl)ccc2o1 [Compound 44H, N-((1S,2R)-1-(3-chloro-4-cyclopropoxyphenyl)-1-hydroxy-3-(pyrrolidin-1-yl)propan-2-yl)-2-(5-chlorobenzofuran-2-yl)-2,2-difluoroacetamide] | B* (the compound had a % inhibition of greater than or equal to about 3% but less than about 50%)
18 | O=C(N[C@H](CN1CC2(CCC2)C1)[C@H](O)c1ccc2c(c1)OCCO2)C(F)(F)c1cc2cc(Cl)ccc2o1 [Compound 48, 2-(5-chlorobenzofuran-2-yl)-N-((1R,2R)-1-(2,3-dihydrobenzo[b][1,4]dioxin-6-yl)-1-hydroxy-3-(2-azaspiro[3.3]heptan-2-yl)propan-2-yl)-2,2-difluoroacetamide] | B* (the compound had a % inhibition of greater than or equal to about 3% but less than about 50%)
